Values quoted from earlier work in patent publication US7604797B2, “Compositions and methods for treating burns” (BioMechanisms Inc., priority 2003, dated 2009).
Read-outs that look alike come from different tables or passages of the source. Where a SMILES comes first, the peptide text is derived from it. Bridges are numbered along the chain shown (N, C = ends). [ ]: non-standard residue; d: D form. The star is where a group is joined. Ileψ(thiazoline)Cys = CC[C@H](C)[C@H](N)C1=N[C@H](C(=O)*)CS1; dOrn = NCCC[C@@H](N)C(=O)O

Key:
malignant tumors = conditions: for Tumor response in patients: acute lymphocytic leukemia, Burkitt's lymphoma, breast carcinoma, mycosis fungoides, epidermoid head and neck cancer, osteogenic sarcoma; for Toxicity of chemotherapy: partly related to polyglutamate formation
[1] = test system: gram-positive and gram-negative organisms, fungi; conditions: topical use on burns

Molecule: CN(Cc1cnc2nc(N)nc(N)c2n1)c1ccc(C(=O)NC(CCC(=O)O)C(=O)O)cc1 (stereo not shown) [MTX, 4-amino-4-deoxy-N^10-methyl-pteroylglutamic acid]
- Tumor response in patients (malignant tumors): good to excellent tumor response
- Toxicity of chemotherapy (malignant tumors): a variety of toxicities

Molecule: Neomycin
- Benefits: effectiveness against microorganisms [1]: Particularly effective

Molecule: CC[C@H](C)[C@H](N)C1=N[C@H](C(=O)N[C@@H](CC(C)C)C(=O)N[C@H](CCC(=O)O)C(=O)N[C@H](C(=O)N[C@H]2CCCCNC(=O)[C@H](CC(N)=O)NC(=O)[C@@H](CC(=O)O)NC(=O)[C@H](Cc3cnc[nH]3)NC(=O)[C@@H](Cc3ccccc3)NC(=O)[C@H]([C@@H](C)CC)NC(=O)[C@@H](CCCN)NC2=O)[C@@H](C)CC)CS1 [Bacitracin] ({Ileψ(thiazoline)Cys}-L[dE]IK[dOrn]I[dF]H[dD]N; lactam 4-C)
- Toxicity and adverse effects in use (burn patients; in vivo): Safe, non-toxic
- Benefits: effectiveness against microorganisms [1]: Effective against gram-

Molecule: Polymyxin B Sulfate
- Toxicity and adverse effects in use (burn patients; topical use on burns): microorganisms. Non-toxic
- Benefits: effectiveness against microorganisms [1]: Effective agains gram-

Molecule: Nc1nc(N)c2nc(CNc3ccc(C(=O)NC(CCC(=O)O)C(=O)O)cc3)cnc2n1 (stereo not shown) [AMT, 4-amino-4-deoxy-pteroylglutamic acid]
- Tumor response in patients (malignant tumors): good to excellent tumor response
- Toxicity of chemotherapy (malignant tumors): a variety of toxicities

Molecule: C[C@@H]1[C@H](O)[C@@H](C)/C=C/C=C/CC/C=C/C=C/C=C/C=C/C(O[C@H]2O[C@H](C)[C@@H](O)[C@H](N)[C@@H]2O)CC2O[C@](O)(CC(O)C(O)CCC(O)CC(O)CC(O)CC(=O)O[C@H]1C)CC(O)C2C(=O)O (stereo partly shown) [Nystatin]
- Benefits: effectiveness against microorganisms [1]: Effective against the most
